Measured values taken from patent US20140135310A1, “SULPHONAMIDE DERIVATIVES OF ALICYCLIC AMINES FOR THE TREATMENT OF CENTRAL NERVOUS SYSTEM DISEASES” (Adamed Sp. z o.o., priority 2011, published 2014).

Experiments:
[1] = biological target: T1, H1 histaminergic receptors (Homo sapiens, UniProt P35367); assay: Radioligand binding assay, histaminergic H1 receptors; conditions: human recombinant (HEK-293 cells), [3H]pyrilamine 1 nM
T1 construct: expressed in transfected cells; host or cells: HEK-293 cells
Method in brief: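 Competition binding at human H1 receptors; specific binding taken as total minus non-specific binding in excess unlabelled ligand, scintillation read-out. IC50 from Hill-equation fit of competition curves; Ki by Cheng-Prusoff using radioligand concentration and Kd (from Scatchard plot).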

M3 muscarinic receptors = biological target: T2, M3 muscarinic receptors (Homo sapiens, UniProt P20309); assay: Radioligand binding assay, muscarinic M3 receptors; conditions: test compound 1×10^−6 M
T2 construct: expressed in transfected cells; host or cells: CHO cells
Method in brief: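 Radioligand competition binding, detected by scintillation counting; non-specific binding defined with excess unlabelled ligand. Results given as % inhibition of control specific binding; IC50 from Hill-equation fit of competition curves, Ki via Cheng-Prusoff with radioligand KD from Scatchard plot.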

5-HT7 receptor = biological target: T3, 5-HT7 receptor (Homo sapiens, UniProt P34969); assay: Radioligand binding assay, serotoninergic 5-HT7 receptors; conditions: binding assay result in %, Table 5a;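 note: test compound at 1 µM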
T3 construct: purchased PerkinElmer
Method in brief: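 Ki values used the Cheng–Prusoff equation, with KD from Scatchard analysis, applied to IC50 from Hill fits of human 5-HT7 radioligand competition curves. Bound radioligand was counted by scintillation, and excess unlabelled ligand set the non-specific binding.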

[2] = biological target: dopaminergic receptors D3 (Homo sapiens, UniProt P35462); assay: Radioligand binding assay, dopaminergic D3 receptors; conditions: test compound 1×10^−6 M
Method in brief: (§1)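 Scintillation read-out. Specific = total − nonspecific (excess cold ligand). Data as % of control specific binding / % inhibition; IC50 by Hill fit; Ki = IC50/(1+L/KD), KD from Scatchard plot.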

receptors D4.4 = biological target: T4, receptors D4.4 (Homo sapiens, UniProt P21917); assay: Radioligand binding assay, dopaminergic D4 (D4.4) receptors; conditions: test compound 1×10^−6 M
T4 sequence (P21917 1-419): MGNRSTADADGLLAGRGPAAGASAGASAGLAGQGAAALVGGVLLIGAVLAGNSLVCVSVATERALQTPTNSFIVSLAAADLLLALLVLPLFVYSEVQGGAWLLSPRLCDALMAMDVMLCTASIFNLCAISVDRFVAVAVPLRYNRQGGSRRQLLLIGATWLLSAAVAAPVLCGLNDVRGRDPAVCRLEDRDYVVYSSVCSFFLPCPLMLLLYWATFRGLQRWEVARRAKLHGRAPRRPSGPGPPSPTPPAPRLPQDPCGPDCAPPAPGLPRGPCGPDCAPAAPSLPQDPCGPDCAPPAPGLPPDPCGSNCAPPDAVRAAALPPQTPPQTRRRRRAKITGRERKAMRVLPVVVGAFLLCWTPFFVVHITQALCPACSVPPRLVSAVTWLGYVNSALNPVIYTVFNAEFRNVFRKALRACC
Method in brief: as §1

5-HT6 receptor = biological target: T5, 5-HT6 receptor (Homo sapiens, UniProt P50406); assay: Radioligand binding assay, serotoninergic 5-HT6 receptors; conditions: for inhibition at 1 µM / 5-HT6 [%]: binding assay result in %, Table 5a; for Ki: read-out: Inhibition constants Ki, 5-HT6;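 for 5-HT6 [%]: test compound at 1 µM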
T5 construct: purchased PerkinElmer
Method in brief: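 Values are Ki from Cheng–Prusoff, taking IC50 from Hill nonlinear regression of competition curves and KD from a Scatchard plot. Specific binding was total minus binding with excess unlabelled ligand. Radioligand displacement was detected by scintillation counting, and data were also reported as percent of control specific binding.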

5-HT2A receptor = biological target: T6, 5-HT2A receptor (Homo sapiens, UniProt P28223); assay: Radioligand binding assay, serotoninergic 5-HT2A receptors; conditions: for inhibition at 1 µM / 5-HT2A [%]: binding assay result in %, Table 5a; for Ki: read-out: Inhibition constants Ki, 5-HT2A
T6 construct: purchased PerkinElmer
Method in brief: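 Competition curves from scintillation-counted specific binding (total minus binding with excess unlabelled ligand) were Hill-fitted to give IC50, converted to Ki via Cheng-Prusoff using Scatchard-derived Kd.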

5-HT2C receptor = biological target: T7, 5-HT2C receptor (Homo sapiens, UniProt P28335); assay: Radioligand binding assay, serotoninergic 5-HT2C receptors; conditions: test compound 1×10^−6 M
T7 construct: expressed in transfected cells; host or cells: HEK-293 cells
T7 sequence (P28335 33-458): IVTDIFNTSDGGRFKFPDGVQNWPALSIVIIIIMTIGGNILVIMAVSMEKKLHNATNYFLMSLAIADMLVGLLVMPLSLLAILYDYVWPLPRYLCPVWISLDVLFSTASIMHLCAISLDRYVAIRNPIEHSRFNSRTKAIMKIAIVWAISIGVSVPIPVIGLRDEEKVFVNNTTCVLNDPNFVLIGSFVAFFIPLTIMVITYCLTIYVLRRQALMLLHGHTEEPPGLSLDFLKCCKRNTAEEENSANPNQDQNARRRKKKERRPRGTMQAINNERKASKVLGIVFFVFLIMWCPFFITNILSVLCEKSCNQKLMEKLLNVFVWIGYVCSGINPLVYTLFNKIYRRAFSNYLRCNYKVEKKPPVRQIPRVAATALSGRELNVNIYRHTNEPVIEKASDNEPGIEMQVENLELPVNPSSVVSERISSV

T1 sequence (P35367 whole entry): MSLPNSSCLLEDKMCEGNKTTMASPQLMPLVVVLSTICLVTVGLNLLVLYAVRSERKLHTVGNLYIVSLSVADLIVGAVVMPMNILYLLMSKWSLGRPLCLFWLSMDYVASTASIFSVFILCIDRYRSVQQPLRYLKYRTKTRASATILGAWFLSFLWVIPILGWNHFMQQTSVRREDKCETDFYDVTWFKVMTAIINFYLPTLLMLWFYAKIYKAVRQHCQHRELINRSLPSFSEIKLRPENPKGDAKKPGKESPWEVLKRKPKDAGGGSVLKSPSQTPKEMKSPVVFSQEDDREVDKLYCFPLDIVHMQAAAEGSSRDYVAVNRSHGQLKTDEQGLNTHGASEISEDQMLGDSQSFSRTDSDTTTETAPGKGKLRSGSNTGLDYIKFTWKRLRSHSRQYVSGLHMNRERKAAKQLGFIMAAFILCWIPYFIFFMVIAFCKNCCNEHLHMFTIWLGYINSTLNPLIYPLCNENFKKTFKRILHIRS
T5 sequence (P50406 whole entry): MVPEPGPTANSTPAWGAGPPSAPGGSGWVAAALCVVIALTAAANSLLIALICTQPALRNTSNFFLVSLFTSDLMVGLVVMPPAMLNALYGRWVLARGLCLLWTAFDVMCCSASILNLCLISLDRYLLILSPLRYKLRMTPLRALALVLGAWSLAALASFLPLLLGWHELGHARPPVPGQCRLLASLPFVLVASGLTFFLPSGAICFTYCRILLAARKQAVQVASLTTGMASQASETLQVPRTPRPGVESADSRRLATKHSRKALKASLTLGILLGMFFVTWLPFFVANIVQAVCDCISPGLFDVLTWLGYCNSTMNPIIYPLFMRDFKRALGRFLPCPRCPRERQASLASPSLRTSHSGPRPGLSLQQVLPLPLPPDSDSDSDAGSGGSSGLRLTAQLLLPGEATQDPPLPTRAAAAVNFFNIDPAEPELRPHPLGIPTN
T6 sequence (P28223 whole entry): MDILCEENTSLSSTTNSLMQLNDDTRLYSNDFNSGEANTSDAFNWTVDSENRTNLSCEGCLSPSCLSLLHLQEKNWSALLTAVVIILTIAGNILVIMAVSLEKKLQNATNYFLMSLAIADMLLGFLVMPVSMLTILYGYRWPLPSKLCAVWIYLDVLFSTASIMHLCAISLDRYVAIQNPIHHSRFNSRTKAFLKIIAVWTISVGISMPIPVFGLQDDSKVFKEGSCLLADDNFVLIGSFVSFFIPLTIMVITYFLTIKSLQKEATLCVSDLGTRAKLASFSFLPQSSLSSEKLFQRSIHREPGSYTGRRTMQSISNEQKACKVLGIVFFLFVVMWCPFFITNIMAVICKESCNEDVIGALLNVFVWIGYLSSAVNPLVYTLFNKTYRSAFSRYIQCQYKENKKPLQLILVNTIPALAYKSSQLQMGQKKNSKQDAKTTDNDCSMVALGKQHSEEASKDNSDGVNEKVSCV
T2 sequence (P20309 whole entry): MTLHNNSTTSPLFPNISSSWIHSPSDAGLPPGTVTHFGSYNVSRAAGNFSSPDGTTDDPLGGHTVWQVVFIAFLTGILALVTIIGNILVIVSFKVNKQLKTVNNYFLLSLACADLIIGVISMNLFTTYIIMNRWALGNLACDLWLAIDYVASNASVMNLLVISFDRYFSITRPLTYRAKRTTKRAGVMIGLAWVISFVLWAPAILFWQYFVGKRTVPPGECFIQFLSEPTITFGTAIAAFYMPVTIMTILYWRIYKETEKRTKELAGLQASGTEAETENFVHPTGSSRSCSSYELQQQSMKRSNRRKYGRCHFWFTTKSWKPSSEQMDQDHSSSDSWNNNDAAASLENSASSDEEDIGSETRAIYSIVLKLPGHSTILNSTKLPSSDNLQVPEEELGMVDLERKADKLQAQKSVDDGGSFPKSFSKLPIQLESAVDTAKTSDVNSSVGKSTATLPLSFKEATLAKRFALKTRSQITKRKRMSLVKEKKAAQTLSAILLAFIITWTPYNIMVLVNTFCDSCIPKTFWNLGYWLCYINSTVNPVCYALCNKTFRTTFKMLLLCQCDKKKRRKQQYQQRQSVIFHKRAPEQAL
Chain of dopaminergic receptors D3 (P35462 whole entry): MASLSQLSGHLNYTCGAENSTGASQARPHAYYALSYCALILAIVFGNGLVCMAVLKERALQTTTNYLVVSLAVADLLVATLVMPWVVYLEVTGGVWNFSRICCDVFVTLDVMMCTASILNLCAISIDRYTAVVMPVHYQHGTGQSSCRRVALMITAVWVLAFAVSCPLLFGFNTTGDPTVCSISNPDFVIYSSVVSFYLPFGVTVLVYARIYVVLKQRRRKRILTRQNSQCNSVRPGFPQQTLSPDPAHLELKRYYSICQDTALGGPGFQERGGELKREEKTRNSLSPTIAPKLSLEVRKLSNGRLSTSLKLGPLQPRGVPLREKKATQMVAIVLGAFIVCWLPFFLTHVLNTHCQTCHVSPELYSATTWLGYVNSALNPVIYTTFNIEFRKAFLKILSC
T3 sequence (P34969 whole entry): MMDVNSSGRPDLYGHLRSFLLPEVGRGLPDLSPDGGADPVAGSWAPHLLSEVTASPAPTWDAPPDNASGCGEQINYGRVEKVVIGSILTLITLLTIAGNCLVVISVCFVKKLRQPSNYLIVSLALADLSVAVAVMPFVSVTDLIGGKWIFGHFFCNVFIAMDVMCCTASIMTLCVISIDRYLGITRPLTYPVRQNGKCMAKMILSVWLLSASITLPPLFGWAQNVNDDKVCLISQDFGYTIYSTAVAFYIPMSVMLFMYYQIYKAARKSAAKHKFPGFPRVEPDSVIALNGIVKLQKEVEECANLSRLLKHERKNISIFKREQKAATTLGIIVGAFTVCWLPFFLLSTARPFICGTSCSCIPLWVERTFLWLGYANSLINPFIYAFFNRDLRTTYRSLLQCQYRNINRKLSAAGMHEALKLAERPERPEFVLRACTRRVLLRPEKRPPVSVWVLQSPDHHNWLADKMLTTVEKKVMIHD

Row | Compound | inhibition at 1 µM [1] [%] | inhibition at 1 µM (M3 muscarinic receptors) [%] | inhibition at 1 µM (5-HT7 receptor) [%] | inhibition at 1 µM [2] [%] | inhibition at 1 µM (receptors D4.4) [%] | inhibition at 1 µM (5-HT6 receptor) [%] | inhibition at 1 µM (5-HT2A receptor) [%] | inhibition at 1 µM (5-HT2C receptor) [%] | Ki (5-HT6 receptor) [nM] | Ki (5-HT2A receptor) [nM] | H1 [%] [1] [%] | M3 [%] (M3 muscarinic receptors) | 5-HT7 [%] (5-HT7 receptor) | D3 [%] [2] [%] | D4.4 [%] (receptors D4.4) | 5-HT6 [%] (5-HT6 receptor) | 5-HT2A [%] (5-HT2A receptor) | 5-HT2C [%] (5-HT2C receptor)
1 | O=S(=O)(NCC1CN(CCCc2noc3cc(F)ccc23)C1)c1ccc(-c2ccccc2)cc1 [Compound 135, N-[[1-[3-(6-Fluoro-1,2-benzoxazol-3-yl)propyl]azetidin-3-yl]methyl]-4-phenyl-benzenesulphonamide] | 79 | 19 | 97 | 94 | 60 | 92 | 99 | 86 |  |  |  |  |  |  |  |  |  | 
2 | O=S(=O)(N[C@H]1CCN(CCCc2noc3cc(F)ccc23)C1)c1cc2ccccc2o1 [Compound 215, N-[(3S)-1-[3-(6-Fluoro-1,2-benzoxazol-3-yl)propyl]pyrrolidin-3-yl]benzo-furan-2-sulphonamide] | 50 | 39 | 98 | 85 | 88 | 93 |  | 74 | 21 | 1.2 |  |  |  |  |  |  |  | 
3 | O=S(=O)(N[C@@H]1CCN(CCCc2noc3cc(F)ccc23)C1)c1cc2ccccc2o1 [Compound 214, N-[(3R)-1-[3-(6-Fluoro-1,2-benzoxazol-3-yl)propyl]pyrrolidin-3-yl]benzo-furan-2-sulphonamide] | 52 | 11 | 98 | 89 | 61 | 97 |  | 65 | 7.5 | 2.1 |  |  |  |  |  |  |  | 
4 | O=S(=O)(NC1CCN(CCCc2noc3cc(F)ccc23)CC1)c1cccc2ccccc12 [Compound 34, N-[1-[3-(6-Fluoro-1,2-benzoxazol-3-yl)propyl]-4-piperidine]-naphthalene-1-sulphonamide] | 56 | 12 | 100 | 58 | 37 | 40 | 98 | 94 |  |  |  |  |  |  |  |  |  | 
5 | O=S(=O)(NC1CN(CCOc2cccc3c2OCCO3)C1)c1ccc(Cl)cc1 [Compound 92, 4-Chloro-N-[1-[2-(2,3-dihydro-1,4-benzodioxan-8-yloxy)ethyl]azetidin-3-yl]benzene-sulphonamide] |  |  |  |  |  |  |  |  |  |  | 6 | 4 | 99 | 60 | 35 | 23 | 60 | 52
6 | COc1cccc(S(=O)(=O)NCC2CN(CCCc3noc4cc(F)ccc34)C2)c1 [Compound 143, N-[[1-[3-(6-Fluoro-1,2-benzoxazol-3-yl)propyl]azetidin-3-yl]methyl]-3-methoxy-benzenesulphonamide] | 36 | -4 | 87 | 46 | 80 | 78 | 94 | 68 |  |  |  |  |  |  |  |  |  | 
7 | O=S(=O)(NCC1CCN(CCOc2cccc3c2OCCO3)C1)c1ccc(Br)cc1 (stereo not shown) [Compound 305, 4-Bromo-N-[[1-[2-(2,3-dihydro-1,4-benzodioxin-5-yloxy)ethyl]pyrrolidin-3-yl]methyl]benzenesulphonamide] | 54 | 11 | 96 | 48 | 52 | 52 | 93 | 59 |  |  |  |  |  |  |  |  |  | 
8 | O=S(=O)(NC1CN(CCOc2cccc3[nH]ccc23)C1)c1cccc(Cl)c1 [Compound 47, 3-Chloro-N-[1-[2-(1H-indol-4-yloxy)ethyl]azetidin-3-yl]benzene-sulphonamide] | -3 | -8 | 100 | 97 | 80 | 45 | 80 | 33 |  |  |  |  |  |  |  |  |  | 
9 | O=S(=O)(NC1CCN(CCCc2noc3cc(F)ccc23)C1)c1ccc(Cl)c(F)c1 (stereo not shown) [Compound 11, 4-Chloro-3-fluoro-N-[1-[3-(6-fluoro-1,2-benzoxazol-3-yl)propyl]-pyrrolidin-3-yl]benzene-sulphonamide] | 37 | 3 | 97 | 49 | 92 | 94 | 100 | 27 |  |  |  |  |  |  |  |  |  | 
10 | O=S(=O)(NCC1CCN(CCCc2noc3cc(F)ccc23)C1)c1ccc(-c2ccccc2)cc1 (stereo not shown) [Compound 241, N-[[1-[3-(6-Fluoro-1,2-benzoxazol-3-yl)propyl]pyrrolidin-3-yl]methyl]-4-phenyl-benzenesulphonamide] | 69 | 19 | 100 | 87 | 33 | 68 | 97 | 66 |  |  |  |  |  |  |  |  |  | 
11 | Cc1cccc(S(=O)(=O)NC2CN(CCOc3cccc4[nH]ccc34)C2)c1 [Compound 48, N-[1-[2-(1H-Indol-4-yloxy)ethyl]azetidin-3-yl]-3-methyl-benzenesulphonamide] | 21 | 1 | 98 | 104 | 80 | 17 | 88 | 32 |  |  |  |  |  |  |  |  |  | 
12 | CC1(C)Cc2cccc(OCCN3CCC(NS(=O)(=O)c4ccc5ccccc5c4)CC3)c2O1 [Compound 110, N-[1-[2-[(2,2-Dimethyl-3H-benzofuran-7-yl)oxy]ethyl]-4-piperidine]naphthalene-2-sulphonamide] |  |  |  |  |  |  |  |  |  |  | 52 | −7 | 99 | 73 | 42 | −60 | 91 | 85
13 | O=S(=O)(NC1CCN(CCCc2c[nH]c3ccc(F)cc23)C1)c1ccc(F)cc1 (stereo not shown) [Compound 75, 4-Fluoro-N-[1-[3-(5-fluoro-1H-indol-3-yl)propyl]pyrrolidin-3-yl]benzene-sulphonamide] | 57 | 17 | 90 | 86 | 76 | 94 | 90 | 83 | 34 |  |  |  |  |  |  |  |  | 
14 | Cn1ccc2cc(S(=O)(=O)NCC3CCN(CCOc4cccc5c4OCCO5)C3)ccc21 (stereo not shown) [Compound 308, N-[[1-[2-(2,3-Dihydro-1,4-benzodioxin-5-yloxy)ethyl]pyrrolidin-3-yl]methyl]-1-methyl-indole-5-sulphonamide] | 37 | 13 | 83 | 43 | 26 | 44 | 91 | 61 |  |  |  |  |  |  |  |  |  | 
